This note sets out measurements from BindingDB's records for doi:10.1021/jm00083a023 (Warner-Lambert, 1992).

As a reminder, the IC50 is the concentration needed to halve the response being measured.

The nature of this assay: Compound was evaluated for the inhibition of serum-opsonized zymosan stimulated myeloperoxidase release from human neutrophil.

`COc1ccc2sc(C(=O)Nc3nnn[nH]3)c(OC(C)C)c2c1` registered an IC50 of 7.5 µM.
